Laboratory results published in patent US8486962B2, “Antifungal agents” (F2G Ltd., priority 2005, dated 2013).
Values after ≈ are worked out from the molar mass of the structure shown.

What was measured:
[1] = test system: Aspergillus niger; experiment: MIC, YAG medium, Aspergillus niger; assay type: cell-based; conditions: Aspergillus niger; YAG medium; read-out: MIC A Niger 1
How it was run: (§1)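 In YAG medium (1% glucose, 1% ammonium chloride, 0.5% yeast extract), Aspergillus strains at 1-2×10^4 cfu/ml were read after 24 hrs at 35° C, with MIC at >70% growth inhibition by OD485. C. albicans was run in MOPS-buffered RPMI, pH7.0, at 1-2×10^3 cfu/ml for 24-48 hrs, with MIC at >80% inhibition. The drug range was 50-0.05 mg/L.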

[2] = test system: A Terreus 49; experiment: MIC, YAG medium, A Terreus 49; assay type: cell-based, Aspergillus terreus; conditions: Aspergillus terreus; YAG medium; read-out: MIC A Terreus 49
Procedure: Measurement of Minimum Inhibitory Concentrations (MICs)
Between 1 and 5 mgs of compound were accurately weighed out into a sterile Eppendorf tube. The compound was dissolved in DMSO to give a solution containing 5 mg/ml. Tubes were stored at −20° C. until required.
On the day of testing thawed solutions were vortex mixed to ensure homogeneity. 30 μl of solution was removed and added to 570 μl of sterile water in a separate sterile Eppendorf. The thoroughly mixed solution was used to prepare a series of doubling dilutions in water, in a deep well plate. Eleven replicate plates were prepared using a Minitrak by aspirating 20 μl from each well into eleven clear polystyrene 96 well plates.
Spores of Aspergillus spp (Aspergillus fumigatus, Aspergillus terreus, Aspergillus niger and Aspergillus flavus) were harvested from cultures grown on Sabarauds agar for 5 days, and resuspended in PBS/Tween 80 to approx 1×10^7 cfu/ml Other filamentous fungi (Fusarium solani, Scedosporium spp., Trichophyton spp., Absidia corymbifera), were grown on Sabarauds agar for 2-10 days and spores/hyphae resuspended in PBS/Tween to give approx 1×10^7 cfU/ml. Candida species (Candida albicans, Candida glabrata, Candida krusei, Candida parapsilosis and Candida tropicalis) were grown on Sabarauds agar, cells were harvested from the agar using a sterile loop and resuspended in PBS/Tween 80 to approx 1×10^6 cfu/ml. Each organism suspension was diluted in RPMI medium, containing 2% glucose and 0.135M MOPS buffer (pH7.0) to 2×10^4 cfu/ml for Aspergillus spp and other filamentous fungi and 2×10^3 cfu/ml for yeast. 80 μl of an organism suspension was added to each well of the plate containing drug dilutions.
This produced MIC plates with a drug range 50-0.05 mg/L and organism inocula of 1-2×10^4 cfu/ml for Aspergillus spp and other filamentous fungi and 1-2×10^3 cfu/ml for yeasts. All plates were incubated for 24-48 hrs at 35° C. Growth was assessed by monitoring the optical density at 485 nm for each well. The MIC of a compound is the lowest drug concentration that inhibits growth of an organism by >80% compared with a drug free control. MICs are recorded as mg/L. Other growth media can be used for susceptibility testing, and the activity of the described compounds can also be assessed in a medium comprising, 1% glucose, 1% ammonium chloride and 0.5% yeast extract (YAG medium). To perform MIC tests in this medium, dilutions of compounds are prepared in microtitre plates as described above. Fungal strains to be tested are grown and harvested in an identical manner to that described above, each organism suspension is then diluted in YAG medium to 2×10^4 cfu/ml for Aspergillus spp and other filamentous fungi and 2×10^3 cfu/ml for yeast. 80 μl of an organism suspension was added to each well of the plate containing drug dilutions. This produced MIC plates with a drug range 50-0.05 mg/L and organism inocula of 1-2×10^4 cfu/ml for Aspergillus spp and other filamentous fungi and 1-2×10^3 cfu/ml for yeasts. All plates were incubated for 24 hrs at 35° C. Growth was assessed by monitoring the optical density at 485 nm for each well. The MIC of a compound is the lowest drug concentration that inhibits growth of an organism by >70% compared with a drug free control. MICs are recorded as mg/L. In cases where the MIC of an organism is […]0.05 mg/L the MIC is repeated using a concentration range of 0.5-0.0005 mg/L. MIC tests in YAG medium have more clear-cut endpoints and have slightly lower MICS than those performed in RPMI medium.
The following organisms were tested: Aspergillus fumigatus AF293 and Aspergillus fumigatus AF210, Aspergillus niger, Aspergillus terreus, Aspergillus favus, Candida albicans, Candida krusei, Candida tropicalis, Candida glabrata, Candida parapsilosis, Trichophyton rubrum, Trichophyton mentagrophytes, Scedosporium prolificans, Scedosporium apiospermum, Absidia corymbifera, Fusarium solani.

[3] = test system: Aspergillus flavus; experiment: MIC, YAG medium, Aspergillus flavus; assay type: cell-based; conditions: Aspergillus flavus; YAG medium; read-out: MIC A Flavus 01
How it was run: as §1

[4] = test system: Aspergillus fumigatus AF293; experiment: MIC, YAG medium, Aspergillus fumigatus AF293; assay type: cell-based; conditions: Aspergillus fumigatus, AF293; YAG medium; read-out: MIC A Fum. 293
How it was run: as §1

[5] = test system: Aspergillus fumigatus AF210; experiment: MIC, YAG medium, Aspergillus fumigatus AF210; assay type: cell-based; conditions: Aspergillus fumigatus, AF210; YAG medium; read-out: MIC A Fum. 210
How it was run: as §1

[6] = test system: Aspergillus terreus; experiment: MIC, YAG medium, Aspergillus terreus; assay type: cell-based; conditions: Aspergillus terreus; YAG medium; read-out: MIC A Terreus 4
How it was run: as §1

SMILES	MIC [1] [µg/mL]	MIC [2] [µg/mL]	MIC [3] [µg/mL]	MIC [4] [µg/mL]	MIC [5] [µg/mL]	MIC [6] [µg/mL]
Cc1ccccc1NC(=O)C(=O)c1c(-c2ccccc2)cc2ccccn12 [Example 202, 2-Oxo-2-(2-phenyl-indolizin-3-yl)-N-o-tolyl-acetamide]	0.031 (≈ 0.0875 µM)	0.015 (≈ 0.0423 µM)	0.062 (≈ 0.175 µM)	0.5 (≈ 1.41 µM)	0.25 (≈ 0.705 µM)	0.008 (≈ 0.0226 µM)
CN(C)c1ccc(NC(=O)C(=O)c2c(-c3ccccc3)cc3ccccn23)cc1 [Example 203, N-(4-Dimethylamino-phenyl)-2-oxo-2-(2-phenyl-indolizin-3-yl)-acetamide]	0.031 (≈ 0.0808 µM)	0.008 (≈ 0.0209 µM)	0.008 (≈ 0.0209 µM)	0.06 (≈ 0.156 µM)	0.062 (≈ 0.162 µM)	0.015 (≈ 0.0391 µM)
O=C(Nc1ccc(Br)cc1)C(=O)c1c(-c2ccccc2)cc2ccccn12 [Example 204, N-(4-Bromo-phenyl)-2-oxo-2-(2-phenyl-indolizin-3-yl)-acetamide]	0.031 (≈ 0.0739 µM)	0.015 (≈ 0.0358 µM)	0.031 (≈ 0.0739 µM)	0.25 (≈ 0.596 µM)	0.25 (≈ 0.596 µM)	0.015 (≈ 0.0358 µM)
CC(=O)c1ccc(NC(=O)C(=O)c2c(-c3ccccc3)cc3ccccn23)cc1 [Example 205, N-(4-Acetyl-phenyl)-2-oxo-2-(2-phenyl-indolizin-3-yl)-acetamide]	0.062 (≈ 0.162 µM)	0.062 (≈ 0.162 µM)	0.062 (≈ 0.162 µM)	0.5 (≈ 1.31 µM)	0.5 (≈ 1.31 µM)	0.031 (≈ 0.0811 µM)
Cc1cccc(NC(=O)C(=O)c2c(-c3ccccc3)cc3ccccn23)c1 [Example 206, 2-Oxo-2-(2-phenyl-indolizin-3-yl)-N-m-tolyl-acetamide]	0.015 (≈ 0.0423 µM)	0.008 (≈ 0.0226 µM)	0.008 (≈ 0.0226 µM)	0.062 (≈ 0.175 µM)	0.062 (≈ 0.175 µM)	0.004 (≈ 0.0113 µM)
O=C(Nc1cc(Cl)cc(Cl)c1)C(=O)c1c(-c2ccccc2)cc2ccccn12 [Example 220, N-(3,5-Dichloro-phenyl)-2-oxo-2-(2-phenyl-indolizin-3-yl)-acetamide]	0.062 (≈ 0.151 µM)	0.008 (≈ 0.0195 µM)	0.015 (≈ 0.0367 µM)	0.12 (≈ 0.293 µM)	0.12 (≈ 0.293 µM)	0.031 (≈ 0.0757 µM)
CC(C)(C#N)c1ccc(NC(=O)C(=O)c2c(-c3ccccc3)cc3ccccn23)cc1 [Example 221, N-[4-(Cyano-dimethyl-methyl)-phenyl]-2-oxo-2-(2-phenyl-indolizin-3-yl)-acetamide]	0.015 (≈ 0.0368 µM)	0.008 (≈ 0.0196 µM)	0.015 (≈ 0.0368 µM)	0.062 (≈ 0.152 µM)	0.03 (≈ 0.0736 µM)	0.015 (≈ 0.0368 µM)
CC(C)(C#N)c1cccc(NC(=O)C(=O)c2c(-c3ccccc3)cc3ccccn23)c1 [Example 228, N-[3-(Cyano-dimethyl-methyl)-phenyl]-2-oxo-2-(2-phenyl-indolizin-3-yl)-acetamide]	0.015 (≈ 0.0368 µM)	0.002 (≈ 0.00491 µM)	0.004 (≈ 0.00982 µM)	0.031 (≈ 0.0761 µM)	0.031 (≈ 0.0761 µM)	0.004 (≈ 0.00982 µM)
CN(C)c1ccc(NC(=O)C(=O)c2c(-c3ccccc3)cc3ccccn23)cn1 [Example 229, N-(6-Dimethylamino-pyridin-3-yl)-2-oxo-2-(2-phenyl-indolizin-3-yl)-acetamide]	0.12 (≈ 0.312 µM)	0.062 (≈ 0.161 µM)	0.031 (≈ 0.0806 µM)	0.5 (≈ 1.3 µM)	0.5 (≈ 1.3 µM)	0.12 (≈ 0.312 µM)
COc1ccc(NC(=O)C(=O)c2c(-c3ccccc3C)cc3ccccn23)cc1 [Example 232, N-(4-Methoxy-phenyl)-2-oxo-2-(2-o-tolyl-indolizin-3-yl)-acetamide]	0.008 (≈ 0.0208 µM)	0.015 (≈ 0.039 µM)	0.015 (≈ 0.039 µM)	0.062 (≈ 0.161 µM)	0.062 (≈ 0.161 µM)	0.031 (≈ 0.0806 µM)
COc1ccc(NC(=O)C(=O)c2c(-c3cccc(C)c3)cc3ccccn23)cc1 [Example 233, N-(4-Methoxy-phenyl)-2-oxo-2-(2-m-tolyl-indolizin-3-yl)-acetamide]	0.06 (≈ 0.156 µM)	0.004 (≈ 0.0104 µM)	0.004 (≈ 0.0104 µM)	0.25 (≈ 0.65 µM)	0.25 (≈ 0.65 µM)	0.008 (≈ 0.0208 µM)
COc1ccc(NC(=O)C(=O)c2c(-c3cccc(Cl)c3)cc3ccccn23)cc1 [Example 235, 2-[2-(3-Chloro-phenyl)-indolizin-3-yl]-N-(4-methoxy-phenyl)-2-oxo-acetamide]	0.12 (≈ 0.296 µM)	0.008 (≈ 0.0198 µM)	0.031 (≈ 0.0766 µM)	0.5 (≈ 1.24 µM)	0.5 (≈ 1.24 µM)	0.015 (≈ 0.0371 µM)
COc1ccc(NC(=O)C(=O)c2c(-c3ccc(C)cc3)cc3ccccn23)cc1 [Example 238, N-(4-Methoxy-phenyl)-2-oxo-2-(2-p-tolyl-indolizin-3-yl)-acetamide]	0.015 (≈ 0.039 µM)	0.008 (≈ 0.0208 µM)	0.015 (≈ 0.039 µM)	0.5 (≈ 1.3 µM)	0.25 (≈ 0.65 µM)	0.015 (≈ 0.039 µM)
O=C(Nc1ccc(F)cc1F)C(=O)c1c(-c2cccc(F)c2)cc2ccccn12 [Example 244, N-(2,4-Difluoro-phenyl)-2-[2-(3-fluoro-phenyl)-indolizin-3-yl]-2-oxo-acetamide]	0.05 (≈ 0.127 µM)	0.1 (≈ 0.254 µM)	0.2 (≈ 0.507 µM)	> 50	> 50	0.2 (≈ 0.507 µM)
N#Cc1cccc(-c2cc3ccccn3c2C(=O)C(=O)Nc2ccc(F)cc2F)c1 [Example 245, 2-[2-(3-Cyano-phenyl)-indolizin-3-yl]-N-(2,4-difluoro-phenyl)-2-oxo-acetamide]	0.4 (≈ 0.997 µM)	0.8 (≈ 1.99 µM)	0.8 (≈ 1.99 µM)	6.25 (≈ 15.6 µM)	6.25 (≈ 15.6 µM)	0.4 (≈ 0.997 µM)
Cc1ccc(Cl)cc1NC(=O)C(=O)c1c(-c2ccccc2)cc2ccccn12 [Example 246, N-(5-Chloro-2-methyl-phenyl)-2-oxo-2-(2-phenyl-indolizin-3-yl)-acetamide]	0.062 (≈ 0.159 µM)	0.004 (≈ 0.0103 µM)	0.031 (≈ 0.0797 µM)	0.12 (≈ 0.309 µM)	0.25 (≈ 0.643 µM)	0.008 (≈ 0.0206 µM)
C=CCOc1cc(F)ccc1NC(=O)C(=O)c1c(-c2ccccc2)cc2ccccn12 [Example 247, N-(2-Allyloxy-4-fluoro-phenyl)-2-oxo-2-(2-phenyl-indolizin-3-yl)-acetamide]	3.1 (≈ 7.48 µM)	0.2 (≈ 0.483 µM)	1.6 (≈ 3.86 µM)	3.1 (≈ 7.48 µM)	3.1 (≈ 7.48 µM)	0.4 (≈ 0.965 µM)
CCOC(=O)C(C)(C)NC(=O)C(=O)c1c(-c2ccccc2)cc2ccccn12 [Example 248, 2-Methyl-2-[2-oxo-2-(2-phenyl-indolizin-3-yl)-acetylamino]-propionic acid ethyl ester]	0.4 (≈ 1.06 µM)	6.25 (≈ 16.5 µM)	> 50	12.5 (≈ 33 µM)	12.5 (≈ 33 µM)	6.25 (≈ 16.5 µM)
CCOC(=O)C(C)(Cc1ccccc1)NC(=O)C(=O)c1c(-c2ccccc2)cc2ccccn12 (stereo not drawn) [Example 249, 2-Methyl-2-[2-oxo-2-(2-phenyl-indolizin-3-yl)-acetylamino]-3-phenyl-propionic acid ethyl ester]	6.25 (≈ 13.8 µM)	1.6 (≈ 3.52 µM)	> 50	0.8 (≈ 1.76 µM)	1.6 (≈ 3.52 µM)	1.6 (≈ 3.52 µM)
